Reference: PMC4858680, “A platinum-based hybrid drug design approach to circumvent acquired resistance to molecular targeted tyrosine kinase inhibitors” (Scientific Reports, 2016)
Read-outs that look alike come from different tables or passages of the source.

Assays:
[1] = test system: EGFR(L747-T751del,Sins); type: binding; conditions: 10 μM
[2] = biological target: ALK (Homo sapiens, UniProt Q9UM73); conditions: 10 μM
[3] = biological target: T1, EPHB1 (Homo sapiens, UniProt P54762); conditions: 10 μM
T1 sequence (P54762 18-984): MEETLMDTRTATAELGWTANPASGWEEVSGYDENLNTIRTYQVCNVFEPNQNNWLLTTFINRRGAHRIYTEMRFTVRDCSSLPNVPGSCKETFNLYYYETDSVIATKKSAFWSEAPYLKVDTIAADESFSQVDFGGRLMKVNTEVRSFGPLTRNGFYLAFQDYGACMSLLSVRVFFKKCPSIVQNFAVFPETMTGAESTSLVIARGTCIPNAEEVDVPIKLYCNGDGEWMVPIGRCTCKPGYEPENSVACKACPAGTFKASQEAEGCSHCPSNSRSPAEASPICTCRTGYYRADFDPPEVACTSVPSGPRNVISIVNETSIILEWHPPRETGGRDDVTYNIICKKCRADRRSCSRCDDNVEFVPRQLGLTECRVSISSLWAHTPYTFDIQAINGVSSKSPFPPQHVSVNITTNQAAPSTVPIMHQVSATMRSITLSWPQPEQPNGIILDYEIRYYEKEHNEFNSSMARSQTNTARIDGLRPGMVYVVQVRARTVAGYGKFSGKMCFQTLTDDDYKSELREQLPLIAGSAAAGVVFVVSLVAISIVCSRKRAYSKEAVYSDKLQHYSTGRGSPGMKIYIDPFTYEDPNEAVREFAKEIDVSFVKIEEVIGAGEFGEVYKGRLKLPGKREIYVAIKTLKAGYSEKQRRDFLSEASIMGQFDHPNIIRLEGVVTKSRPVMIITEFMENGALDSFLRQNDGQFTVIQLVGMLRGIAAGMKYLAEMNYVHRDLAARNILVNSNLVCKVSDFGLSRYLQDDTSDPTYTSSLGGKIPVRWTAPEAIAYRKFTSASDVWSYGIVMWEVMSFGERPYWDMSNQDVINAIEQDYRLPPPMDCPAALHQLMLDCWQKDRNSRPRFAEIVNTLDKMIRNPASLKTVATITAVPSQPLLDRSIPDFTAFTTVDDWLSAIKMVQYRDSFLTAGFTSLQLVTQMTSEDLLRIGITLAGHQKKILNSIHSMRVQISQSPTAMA

[4] = biological target: T2, FLT3 (Homo sapiens, UniProt P36888)
T2 sequence (P36888 27-993): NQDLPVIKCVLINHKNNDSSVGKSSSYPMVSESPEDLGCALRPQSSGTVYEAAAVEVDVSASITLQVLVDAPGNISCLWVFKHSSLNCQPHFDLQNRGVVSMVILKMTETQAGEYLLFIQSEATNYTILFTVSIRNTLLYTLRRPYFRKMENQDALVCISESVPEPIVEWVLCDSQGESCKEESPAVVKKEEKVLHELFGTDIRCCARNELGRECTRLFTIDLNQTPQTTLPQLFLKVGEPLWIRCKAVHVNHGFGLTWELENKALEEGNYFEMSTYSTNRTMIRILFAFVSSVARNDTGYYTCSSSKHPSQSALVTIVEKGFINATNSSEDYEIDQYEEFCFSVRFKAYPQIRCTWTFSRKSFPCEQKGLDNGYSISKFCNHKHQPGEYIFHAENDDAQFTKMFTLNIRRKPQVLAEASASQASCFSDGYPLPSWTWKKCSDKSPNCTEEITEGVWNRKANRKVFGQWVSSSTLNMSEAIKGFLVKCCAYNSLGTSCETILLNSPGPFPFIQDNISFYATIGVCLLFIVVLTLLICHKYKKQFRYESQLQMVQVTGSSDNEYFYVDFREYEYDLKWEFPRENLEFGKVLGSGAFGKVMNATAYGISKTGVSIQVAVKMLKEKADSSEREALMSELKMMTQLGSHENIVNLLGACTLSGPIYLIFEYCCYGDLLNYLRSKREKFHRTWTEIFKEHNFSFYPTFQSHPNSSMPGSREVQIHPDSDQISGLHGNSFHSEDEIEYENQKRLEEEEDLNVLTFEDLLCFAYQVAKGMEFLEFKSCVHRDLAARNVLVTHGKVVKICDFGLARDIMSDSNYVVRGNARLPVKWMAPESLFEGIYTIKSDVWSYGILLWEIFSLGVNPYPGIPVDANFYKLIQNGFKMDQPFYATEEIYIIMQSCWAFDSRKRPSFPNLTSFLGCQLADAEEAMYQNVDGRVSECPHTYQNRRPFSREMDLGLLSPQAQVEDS

[5] = biological target: T3, ITK (Homo sapiens, UniProt Q08881); conditions: 10 μM
T3 sequence (Q08881 1-620): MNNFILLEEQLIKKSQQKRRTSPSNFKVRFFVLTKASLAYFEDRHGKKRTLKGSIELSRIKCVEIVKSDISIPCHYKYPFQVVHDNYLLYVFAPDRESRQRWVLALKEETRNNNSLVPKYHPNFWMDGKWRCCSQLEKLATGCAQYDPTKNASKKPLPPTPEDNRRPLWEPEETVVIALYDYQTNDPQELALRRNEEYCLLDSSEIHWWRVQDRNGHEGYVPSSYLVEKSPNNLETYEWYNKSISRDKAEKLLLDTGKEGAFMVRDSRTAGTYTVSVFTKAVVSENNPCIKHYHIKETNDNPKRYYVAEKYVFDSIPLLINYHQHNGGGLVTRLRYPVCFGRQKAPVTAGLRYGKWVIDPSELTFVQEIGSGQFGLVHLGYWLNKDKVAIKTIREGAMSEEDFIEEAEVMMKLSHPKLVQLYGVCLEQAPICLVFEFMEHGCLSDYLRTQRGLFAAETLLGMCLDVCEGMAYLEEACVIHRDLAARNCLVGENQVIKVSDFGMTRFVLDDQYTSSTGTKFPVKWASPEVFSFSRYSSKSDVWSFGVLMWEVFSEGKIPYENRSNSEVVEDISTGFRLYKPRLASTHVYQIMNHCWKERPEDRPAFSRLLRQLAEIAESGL

[6] = biological target: LYN (Homo sapiens, UniProt P07948); conditions: 10 μM
Sequence of LYN (P07948 whole entry): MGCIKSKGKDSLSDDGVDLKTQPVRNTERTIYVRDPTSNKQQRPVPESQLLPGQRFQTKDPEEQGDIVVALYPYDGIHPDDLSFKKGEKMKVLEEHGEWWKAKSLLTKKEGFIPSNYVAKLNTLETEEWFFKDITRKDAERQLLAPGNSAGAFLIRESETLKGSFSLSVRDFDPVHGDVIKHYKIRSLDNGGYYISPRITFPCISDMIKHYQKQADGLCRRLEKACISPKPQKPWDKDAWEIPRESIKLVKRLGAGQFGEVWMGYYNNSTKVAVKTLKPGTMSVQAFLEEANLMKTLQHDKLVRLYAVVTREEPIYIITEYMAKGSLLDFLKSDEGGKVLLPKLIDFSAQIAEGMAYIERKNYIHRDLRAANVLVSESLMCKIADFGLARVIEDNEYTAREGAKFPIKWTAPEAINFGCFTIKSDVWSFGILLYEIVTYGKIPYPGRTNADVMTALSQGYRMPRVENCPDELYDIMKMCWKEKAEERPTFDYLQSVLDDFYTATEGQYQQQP

[7] = biological target: TIE2 (Homo sapiens, UniProt Q02763); conditions: 10 μM
Sequence of TIE2 (Q02763 23-1124): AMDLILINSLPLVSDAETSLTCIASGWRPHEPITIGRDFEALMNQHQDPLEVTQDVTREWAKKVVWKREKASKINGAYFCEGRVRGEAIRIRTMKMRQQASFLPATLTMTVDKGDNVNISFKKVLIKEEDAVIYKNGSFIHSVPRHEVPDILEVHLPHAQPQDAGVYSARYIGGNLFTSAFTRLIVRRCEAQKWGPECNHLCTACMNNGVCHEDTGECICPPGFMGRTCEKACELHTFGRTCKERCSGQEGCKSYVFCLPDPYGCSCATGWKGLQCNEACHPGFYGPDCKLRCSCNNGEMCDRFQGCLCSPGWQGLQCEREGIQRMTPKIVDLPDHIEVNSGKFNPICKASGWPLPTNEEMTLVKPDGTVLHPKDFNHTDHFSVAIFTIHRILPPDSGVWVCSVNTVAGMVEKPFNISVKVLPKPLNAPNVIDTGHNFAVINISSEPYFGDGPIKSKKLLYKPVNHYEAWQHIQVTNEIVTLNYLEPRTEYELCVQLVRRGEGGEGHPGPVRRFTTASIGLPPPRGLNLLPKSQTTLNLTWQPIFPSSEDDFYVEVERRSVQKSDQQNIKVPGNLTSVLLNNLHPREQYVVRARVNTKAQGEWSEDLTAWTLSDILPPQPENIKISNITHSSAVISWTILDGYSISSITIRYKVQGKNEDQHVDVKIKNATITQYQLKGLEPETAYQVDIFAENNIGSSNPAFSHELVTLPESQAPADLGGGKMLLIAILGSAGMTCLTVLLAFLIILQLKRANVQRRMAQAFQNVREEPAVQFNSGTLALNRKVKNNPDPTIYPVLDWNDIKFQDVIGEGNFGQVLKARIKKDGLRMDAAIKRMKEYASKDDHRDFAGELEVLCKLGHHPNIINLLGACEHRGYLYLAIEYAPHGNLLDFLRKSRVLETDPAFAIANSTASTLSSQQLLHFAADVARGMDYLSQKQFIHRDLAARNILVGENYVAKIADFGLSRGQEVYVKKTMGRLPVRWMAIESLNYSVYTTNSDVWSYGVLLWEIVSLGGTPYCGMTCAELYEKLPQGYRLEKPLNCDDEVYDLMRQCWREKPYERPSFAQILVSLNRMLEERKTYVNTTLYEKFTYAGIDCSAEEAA

[8] = biological target: TRKC (Homo sapiens, UniProt Q16288); conditions: 10 μM
Sequence of TRKC (Q16288 32-839): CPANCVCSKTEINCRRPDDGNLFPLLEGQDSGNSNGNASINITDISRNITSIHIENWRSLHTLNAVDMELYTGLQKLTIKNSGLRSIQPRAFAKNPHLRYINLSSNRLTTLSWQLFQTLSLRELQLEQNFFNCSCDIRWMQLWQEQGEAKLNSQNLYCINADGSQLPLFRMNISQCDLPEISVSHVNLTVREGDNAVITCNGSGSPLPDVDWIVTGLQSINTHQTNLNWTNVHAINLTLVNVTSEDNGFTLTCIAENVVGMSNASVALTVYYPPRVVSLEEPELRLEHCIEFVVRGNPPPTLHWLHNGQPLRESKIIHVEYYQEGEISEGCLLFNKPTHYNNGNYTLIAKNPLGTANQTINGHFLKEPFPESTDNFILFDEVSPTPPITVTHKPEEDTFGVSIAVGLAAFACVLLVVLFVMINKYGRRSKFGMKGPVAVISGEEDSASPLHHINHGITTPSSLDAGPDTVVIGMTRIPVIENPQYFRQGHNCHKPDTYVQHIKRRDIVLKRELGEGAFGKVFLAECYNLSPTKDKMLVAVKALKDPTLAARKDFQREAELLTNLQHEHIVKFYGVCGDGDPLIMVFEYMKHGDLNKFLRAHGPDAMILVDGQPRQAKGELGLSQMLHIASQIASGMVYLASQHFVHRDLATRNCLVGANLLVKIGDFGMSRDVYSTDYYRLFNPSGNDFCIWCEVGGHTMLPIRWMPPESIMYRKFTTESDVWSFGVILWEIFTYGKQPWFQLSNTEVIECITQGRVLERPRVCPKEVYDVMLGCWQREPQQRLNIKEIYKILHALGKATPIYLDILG

[9] = test system: H292; assay: Anticancer activity (cytotoxicity) in NSCLC cell line; type: cell-based
[10] = biological target: T3, ITK; assay: biochemical; conditions: read-out: Percent control
[11] = NSCLC, EGFR wild type, read-out: Anticancer activity (IC50) H292
[12] = Homo sapiens, NCI-H292, read-out: Anticancer activity (IC50) H292

Sequence of ALK (Q9UM73 19-1620): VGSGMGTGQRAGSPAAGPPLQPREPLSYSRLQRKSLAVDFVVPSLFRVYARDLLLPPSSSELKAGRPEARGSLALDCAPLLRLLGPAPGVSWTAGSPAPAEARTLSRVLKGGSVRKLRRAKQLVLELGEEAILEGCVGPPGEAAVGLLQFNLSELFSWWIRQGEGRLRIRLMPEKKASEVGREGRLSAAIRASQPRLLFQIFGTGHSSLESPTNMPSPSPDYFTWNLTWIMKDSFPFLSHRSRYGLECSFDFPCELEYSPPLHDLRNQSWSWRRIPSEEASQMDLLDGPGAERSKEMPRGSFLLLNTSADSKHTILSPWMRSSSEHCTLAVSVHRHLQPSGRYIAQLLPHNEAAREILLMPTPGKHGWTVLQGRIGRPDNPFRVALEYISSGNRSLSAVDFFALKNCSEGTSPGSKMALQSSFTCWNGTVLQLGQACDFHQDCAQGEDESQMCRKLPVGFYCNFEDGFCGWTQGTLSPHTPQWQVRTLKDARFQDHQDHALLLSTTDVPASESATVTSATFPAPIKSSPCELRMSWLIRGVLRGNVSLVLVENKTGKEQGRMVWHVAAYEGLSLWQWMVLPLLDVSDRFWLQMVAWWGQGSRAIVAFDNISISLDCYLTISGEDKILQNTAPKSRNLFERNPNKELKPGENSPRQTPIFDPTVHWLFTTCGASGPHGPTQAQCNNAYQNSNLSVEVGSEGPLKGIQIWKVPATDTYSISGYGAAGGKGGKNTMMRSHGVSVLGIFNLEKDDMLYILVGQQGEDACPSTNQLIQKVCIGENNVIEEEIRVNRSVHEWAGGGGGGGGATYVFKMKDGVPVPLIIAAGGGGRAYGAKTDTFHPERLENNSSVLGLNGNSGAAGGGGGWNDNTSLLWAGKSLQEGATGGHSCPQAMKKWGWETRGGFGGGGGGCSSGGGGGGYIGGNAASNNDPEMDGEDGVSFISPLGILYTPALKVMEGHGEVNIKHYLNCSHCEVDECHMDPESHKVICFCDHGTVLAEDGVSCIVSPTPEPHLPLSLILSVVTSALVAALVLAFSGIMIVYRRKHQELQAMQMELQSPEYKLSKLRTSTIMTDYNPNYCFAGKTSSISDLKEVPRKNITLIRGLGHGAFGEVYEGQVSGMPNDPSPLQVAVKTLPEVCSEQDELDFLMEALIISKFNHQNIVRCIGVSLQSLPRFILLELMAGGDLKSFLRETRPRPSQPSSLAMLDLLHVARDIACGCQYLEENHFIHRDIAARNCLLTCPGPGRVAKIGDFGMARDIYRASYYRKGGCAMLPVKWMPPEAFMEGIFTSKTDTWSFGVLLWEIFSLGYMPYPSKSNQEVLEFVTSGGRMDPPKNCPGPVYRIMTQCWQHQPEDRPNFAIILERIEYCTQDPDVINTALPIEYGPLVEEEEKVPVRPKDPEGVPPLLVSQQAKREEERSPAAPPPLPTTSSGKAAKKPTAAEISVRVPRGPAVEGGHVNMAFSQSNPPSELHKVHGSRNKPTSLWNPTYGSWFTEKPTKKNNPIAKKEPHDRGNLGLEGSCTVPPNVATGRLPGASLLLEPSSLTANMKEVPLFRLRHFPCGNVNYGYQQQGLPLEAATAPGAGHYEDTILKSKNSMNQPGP

Q: Which results are given for `Cc1ccc(NC(=O)c2ccc(CN3CCN(C)CC3)cc2)cc1Nc1nccc(-c2cccnc2)[n+]1[Pt-2]1([Cl])[NH2+]C2CCCCC2[NH2+]1` (stereo not shown) [1b, oxaliplatin-imatinib]?
A: Percent control [1]: 76%; Percent control [2]: 99%; Percent control [3]: 94%; Percent control ([4]; FLT3, 10 μM): 88%; Percent control [5]: 100%; Percent control [6]: 67%; Percent control [7]: 94%; Percent control [8]: 100%

Q: `C#Cc1cccc(Nc2c3cc(OCCOC)c(OCCOC)cc3nc[n+]2[Pt@SP2-2]([NH3+])([NH3+])[Cl])c1` [2a, cisplatin-erlotinib] was tested. Which IC50 [9, 11] did it give?
A: 3.27 ± 1.75 µM

Q: What about the Percent control [2] of the same compound?
A: 79%

Q: What about the Percent control [3] of the same compound?
A: 90%

Q: And the Percent control [4]?
A: 75

Q: What about the Percent control [5] of the same compound?
A: 84%

Q: What about the Percent control [6] of the same compound?
A: 69%

Q: And the Percent control [7]?
A: 94%

Q: And the Percent control [8]?
A: 93%

Q: With `COc1cc2c(Nc3ccc(Br)cc3F)[n+]([Pt-2]3([Cl])[NH2+]C4CCCCC4[NH2+]3)cnc2cc1OCC1CCN(C)CC1` (stereo not shown) [3b, oxaliplatin-vandetanib] as the compound, how does the IC50 [9, 11] read?
A: 9.32 ± 1.01 µM

Q: And the Percent control [3]?
A: 31%

Q: And the Percent control [4]?
A: 49

Q: What about the Percent control [5] of the same compound?
A: 95%

Q: What about the Percent control [6] of the same compound?
A: 21%

Q: And the Percent control [7]?
A: 49%

Q: And the Percent control [8]?
A: 98%

Q: With `C#Cc1cccc(Nc2ncnc3cc(OCCOC)c(OCCOC)cc23)c1` [Erlotinib] as the compound, how does the IC50 [9, 12] read?
A: 0.22 ± 0.12 µM

Q: And the Percent control [1]?
A: 0.0%

Q: And the remaining activity at 10 µM [10]?
A: 100%

Q: What does the source list for `Cc1ccc(NC(=O)c2ccc(CN3CCN(C)CC3)cc2)cc1Nc1nccc(-c2cccnc2)n1` [Imatinib, reference compound]?
A: Percent control [1]: 100%; Percent control [2]: 100%; Percent control [3]: 100%; Percent control ([4]; FLT3, 10 μM): 100%; Percent control [6]: 74%; Percent control [7]: 100%; Percent control [8]: 100%; remaining activity at 10 µM [10]: 100%

Q: `COc1cc2c(Nc3ccc(Br)cc3F)ncnc2cc1OCC1CCN(C)CC1` [Vandetanib, reference compound] was tested. Which IC50 [9, 12] did it give?
A: 6.24 ± 0.94 µM

Q: And the Percent control [1]?
A: 0.1%

Q: What about the remaining activity at 10 µM [10] of the same compound?
A: 100%
